Assay results reported in US20260240854A1, “COMBINATIONS OF KRAS INHIBITOR AND ATR INHIBITOR FOR THE TREATMENT OF CANCER” (ASTRAZENECA AB, priority 2023, published 2026).

System: CT26^G12C murine colon carcinoma cells
Assay: Anti-tumor study, CT26^G12C tumors grown subcutaneously in immunocompetent BALB/c mice
Assay type: in vivo
Settings: for Survival rate compared to the control group / Tumor return: Example 1, study end day 54
Procedure: All pathogen-free animals used in the studies below were housed in a controlled, pathogen-free environment with the following conditions: temperature (19-23° C.), humidity (55% 10%), photoperiod (12 h light/dark cycle), and air exchange. Animals were housed in individually vented cages, with food and water provided ad libitum.
Following testing materials were used for the preclinical, in vivo studies below: vehicle (0.5% HPMC/0.1% Tween 80), AZD4625 (0.5% HPMC/0.1% Tween 80), Compound of Formula IV (0.5% HPMC/0.1% Tween 80) and AZD6738 (10% DMSO/40% PG/50% WFI). For the monotherapies, the vehicle and the inhibitors were dosed orally in a volume of 0.05-0.1 mL/10 g. For the combination therapies, AZD4625 or Compound of Formula IV were dosed 4 or 2 hours after the AM dose of AZD6738.
Tumors were measured three times a week by caliper and the volumes were calculated using elliptical formula (pi/6×width×width×length). Animal bodyweight and tumor condition were also recorded for the duration of the study. Subject mice remained on study until tumor size reached 1.5 cm^3 for anti-tumor studies and 0.7 cm^3 for the rechallenge study, clinical signs were observed, or until the study end date.
(§1) For the study, CT26^G12C murine colon carcinoma cells, engineered to express the KRAS^G12C mutation, were grown subcutaneously in BALB/c mice with an intact immune system. To prepare the subject mice, 5×10^5 and 5×10^4 CT26^G12C (G12C clone P5E6) cells were implanted subcutaneously into the right flank of female BALB/c mice (Envigo UK, Strain ID: HSD-162) or female nude-Foxn1nu mice (Envigo UK, Strain ID: HSD-069), respectively. Once a mean volume of approximately 0.2 cm^3 tumor formed, subject mice were randomized into relevant treatment and control groups and treated with vehicle control, AZD4625 or AZD6738 in monotherapy, or in combination therapy for 4 weeks. AZD4625 was dosed daily and AZD6738 was dosed twice daily on a 7 day-on, 7 day-off schedules for the treatment period (FIG. 1A). Tumor growth and bodyweights of animals were monitored during and post-treatment. Subject mice remained on study until tumor size reached 1.5 cm^3, clinical signs were observed, or to the study end date (day 54).
as §1, with “vehicle control, AZD4625, Compound of Formula IV, or AZD6738” for “vehicle control, AZD4625 or AZD6738”, “monotherapy, or AZD4625 and AZD6738 or Compound of Formula IV and AZD6738 in combination” for “monotherapy, or in combination”, “weeks. AZD4625 and Compound of Formula IV were dosed daily” for “weeks. AZD4625 was dosed daily”, “period (FIG. 2A). Tumor growth” for “period (FIG. 1A). Tumor growth”, “study end date. Mice in the AZD4625 monotherapy and combination groups were monitored up to 65 days post-implant while mice in the Compound of Formula IV monotherapy and combination groups were monitored up to 119 days post-implant.” for “study end date (day 54).”
CT26^G12C murine colon carcinoma cells were grown subcutaneously in BALB/c mice with an intact immune system as described in Examples 1 and 2. […] Tumor growth and body weights of animals were monitored during and post-treatment. Subject mice remained on study until tumor size reached 1.5 cm^3, clinical signs were observed, or to the study end.

[1] = Example 5, 4 weeks treatment, compared to vehicle or to KRAS^G12C inhibitor monotherapy, FIG. 5A
[2] = Example 1, 4 weeks oral treatment, compared to control group, FIG. 1B
[3] = Example 2, 4 weeks oral treatment, FIG. 2B

| SMILES | Tumor return after drug cessation (Example 5) | Tumor growth response [1] | Survival rates (Example 5, FIG. 5B) | Tumor growth response [2] | Survival rate compared to the control group | Tumor return | Tumor growth response [3] | Tumors returned after drug cessation (Example 2, monitored up to 119 days post-implant) |
| --- | --- | --- | --- | --- | --- | --- | --- | --- |
| C=CC(=O)N1CCN(c2nc(=O)n(-c3c(C)ccnc3C(C)C)c3nc(-c4c(O)cccc4F)c(F)cc23)[C@@H](C)C1 (atropisomer, axis not shown) [sotorasib, reference compound] | most tumors returning after drug cessation | initial tumor growth delay | increased survival rates | – | – | – | – | – |
| C=CC(=O)N1C[C@@H]2CCOc3c(Cl)c(-c4c(O)cccc4F)c(F)c4ncnc(c34)N2C[C@H]1C [AZD4625, 1-[(6aS,9R)-3-chloro-1-fluoro-2-(2-fluoro-6-hydroxyphenyl)-9-methyl-5,6,6a,7,9,10-hexahydro-8H-pyrazino[1′,2′:5,6][1,5]oxazocino[4,3,2-de]quinazolin-8-yl]prop-2-en-1-one] | – | – | – | delayed tumor growth | extended survival rate | most tumors ultimately returned | tumor regression | – |
| C[C@@H]1COCCN1c1cc(C2([S@](C)(=N)=O)CC2)nc(-c2ccnc3[nH]ccc23)n1 [AZD6738, 4-{4-[(3R)-3-methylmorpholin-4-yl]-6-[1-((R)—S-methylsulfonimidoyl)cyclopropyl]pyrimidin-2-yl}-1H-pyrrolo[2,3-b]pyridine] | – | no or weak activity | – | delayed tumor growth | extended survival rate | most tumors ultimately returned | – | – |
| C=CC(=O)N1CCN2Cc3cc(C#CC)c(-c4c(O)cccc4Cl)c(F)c3OC[C@H]2C1 [Compound of Formula IV, 1-[(12aR)-9-(2-chloro-6-hydroxyphenyl)-10-fluoro-8-(prop-1-yn-1-yl)-3,4,12,12a-tetrahydro-6H-pyrazino[2,1-c][1,4]benzoxazepin-2(1H)-yl]prop-2-en-1-one] | – | – | – | – | – | – | tumor regression | 8 out of 9 |
